Here are results for three compounds from article PMC11689655, “High-throughput screening of dual-target inhibitors for SARS-CoV-2 main protease and papain-like protease from Chebulae Fructus: in silico prediction and experimental verification” (Frontiers in Microbiology, 2024).

Data set [1] relates to SARS-CoV-2 wild-type. Description: Antiviral activity (CPE inhibition) in Vero E6 cells, wild-type. Format: cell-based. The settings on record: read-out: EC50 against SARS-CoV-2 wild-type strain.
Data set [2] deals with T1, SARS-CoV-2 PL^pro (Severe acute respiratory syndrome coronavirus 2, UniProt P0DTD1). Briefly: SPR assay, PL^pro. The settings on record: Biacore T200, CM5 chip, kinetics analysis. Format: binding.
The target of data set [3] is T2, SARS-CoV-2 M^pro (Severe acute respiratory syndrome coronavirus 2, UniProt P0DTD1). Briefly: biochemical. The conditions noted are these: FRET.
For data set [4], the target named is T2, SARS-CoV-2 M^pro. Briefly: biochemical. Format: binding. The conditions noted are these: SPR, Biacore T200, CM5 chip, kinetics analysis. For orientation: SPR reads the build-up and loss of mass on a sensor chip optically.
In data set [5] the target is T1, SARS-CoV-2 PL^pro. Briefly: FRET enzymatic inhibition assay, PL^pro. Format: biochemical.
The nature of data set [6]: in vitro. The settings on record: African green monkey.
Data set [7] can be described thus: Cytotoxicity by CCK8 assay. The settings on record: African green monkey.
[8] abbreviates: Severe acute respiratory syndrome coronavirus 2, Vero C1008, MOI = 0.01, 48 h.

Where two headings read alike, the source gives them in different places. A value given as a limit tells only on which side of the number the result lay.

As to `O=C(OC[C@H]1O[C@@H](OC(=O)c2cc(O)c(O)c(O)c2)[C@H](OC(=O)c2cc(O)c(O)c(O)c2)[C@@H](OC(=O)c2cc(O)c(O)c(O)c2)[C@@H]1O)c1cc(O)c(O)c(O)c1` [TGG, 1,2,3,6-tetra-O-galloyl-β-D-glucose], in data set [1] (setting [8]), the concentration giving a half-maximal response (EC50) came to 13 µM. For the same compound, the dissociation constant (Kd) was determined as 0.776 µM in data set [2] and 0.768 µM in data set [4]. In addition, the IC50 in data set [3] (0.2 μM M^pro, 20 μM substrate, mean ± SD, n = 3, read-out: IC50 against M^pro) turned out to be 1.33 ± 0.47 µM; in data set [5] (1.0 μM PL^pro, 10 μM substrate, mean ± SD, n = 3, read-out: IC50 against PL^pro) it was 27.4 ± 2.43 µM. Besides, the inhibition at 40 µM in data set [3] (compound 40 μM, read-out: inhibition effect on M^pro) is above 60%; in data set [5] (compound 40 μM, read-out: inhibition effect on PL^pro), above 60%. The compound further came in with a CC50 in data set [6] above 100 µM.
Consider `O=C(OC[C@H]1O[C@@H](OC(=O)c2cc(O)c(O)c(O)c2)[C@H](OC(=O)c2cc(O)c(O)c(O)c2)[C@@H](OC(=O)c2cc(O)c(O)c(O)c2)[C@@H]1OC(=O)c1cc(O)c(O)c(O)c1)c1cc(O)c(O)c(O)c1` [PGG, 1,2,3,4,6-penta-O-galloyl-β-D-glucose], for which the half-maximal effective concentration (EC50) in data set [1] (setting [8]) is 8.22 µM. In data set [7], this compound had a CC50 above 100 µM.
For the compound `Cn1cnc(Cn2c(=O)[nH]/c(=N\c3cc4cn(C)nc4cc3Cl)n(Cc3cc(F)c(F)cc3F)c2=O)n1` [S-217622, reference compound], the concentration giving a half-maximal response (EC50) in data set [1] (MOI = 0.01, 48 h) is 0.05 µM.

What is called EC50 is the concentration at which the effect is half-maximal. By Kd is commonly meant the constant that tells how readily two partners part at equilibrium. By IC50 is commonly meant the point on the concentration scale where inhibition reaches its midpoint. A word on the inhibition: it is the share of the control response that was lost under treatment.
